From patent publication US12558329B2 (New York University, priority 2021, dated 2026) come the findings set out here.

SMILES strings stand for the structures. “Also recorded” adds a separate entry of the source.

Assay [1] deals with HPDL. In words: HPDL levels in the cell after addition of HPDL products. The format is cell-based.
In assay [2] the test system is MIAPACA2 cells. In words: 3D growth assay. Conditions: HPDL KO cells, 1 mM, three days. It counts as cell-based, human. As to the method:
For the 3D growth assay, approximately 2,500 cells were seeded into a low-attachment 96-well plate containing DMEM+10% diaFBS and 5% Matrigel. Cells were grown for three days at 37° C. and 5% CO2. Cells were also treated or without 1 mM 4-HMA or 4-HB for the duration of the assay. To measure 3D growth with the CyQUANT Cell Proliferation Assay kit, plates were frozen at −80° C., thawed at room temperature, and equal volumes of 2× CyQUANT reagent+lysis buffer was added to the wells. As a control, wells containing media+5% Matrigel and no cells were used as blanks. CyQUANT measurements were performed as described in the manufacturer's instructions.

Assay [3] relates to MIAPACA2 cells. In words: Pulse-chase study with tyrosine-derived intermediates after two weeks of 13C9-Tyr labelling. It counts as cell-based, human. The following applies: for effect on intracellular levels of the other Tyr-derived metabolites: exogenous unlabelled metabolite; for increase of the fraction of unlabelled (non-labelled) CoQ10: unlabelled intermediate added in the presence of 13C9-Tyr, 21% O2. As for the experimental part:
Using the same experimental scheme, the incorporation of Tyr-derived metabolites into CoQ10 was measured. […] For metabolomics, briefly, cells were washed in 4° C. 0.9% saline and metabolites were extracted with 46% methanol:23% H2O:[…] chloroform that contained a labelled amino acid standard mix (MSK-A2-1.2, Cambridge Isotope Laboratories, Inc.). Enzymatic assay samples were extracted using 80% methanol: 20% H2O that contained labelled amino acid standards. Extracts were placed into 1.5 mL Eppendorf tubes, vortexed at 4° C. for 10 min and centrifuged at 4° C. for 10 min at 17,200×g in a microcentrifuge. The aqueous phase was transferred to vials for GC-MS or Eppendorf tubes for LC-MS. Polar samples were evaporated in a […] and samples were resolved by GC-MS or LC-MS. Lipid samples were dried using a stream of N2 (for ^18O labelling studies) or air. Metabolite and lipid extracts were submitted to the […] Metabolomics Core Resource Laboratory. For polar metabolomics, the LC column was a Millipore ZIC-pHILIC (2.1×150 […], 5 μm bead size) coupled to a Dionex […] 3000 system. The column oven temperature was held at 25° C. The flow rate was 100 μL/min, and the injection volume was 1 μL. Buffer A was 10 mM ammonium carbonate in water, pH 9, and Buffer B was neat acetonitrile. The gradient profile was 80-20% B (0-30 min), 20-80% B (30-31 min), and 80-80% B (31-42 min). MS Analyses were carried out on a Thermo Q Exactive HF mass spectrometer using a heated electrospray ionization (HESI) source. The method duration was 30 min using a polarity-switching, top 5 method. The spray voltage for both positive and negative ion modes was 3.5 kV. The capillary temperature was 320° C. with a maximum spray current of 100 ρA. The full MS scan was carried out at 120,000 resolution with a scan range of 67-1000 m/z. For ^18O2 labelling experiments, full MS scans were carried out at 240,000 resolution at the same scan range. Tandem MS spectra were obtained at 15,000 resolution. All data were acquired in profile mode. Peak heights were analyzed using Xcalibur (ThermoFisher Scientific). Lipid metabolomics were acquired using a Waters CSH-C18 (2.1×100 mm, 1.7 μm) column coupled to a Dionex […] 3000 system. The column oven temperature was held at 55° C. The flow rate was 300 μL/min and the injection volume was 1 μL. Buffer A was 60:40 acetonitrile:water, 0.1% formic acid and Buffer B was 90:10 isopropanol:acetonitrile, 10 mM ammonium formate. The gradient profile was 40-43% B (0-1.25 min), 43-50% B (1.25-2 min), 50-54% B (2-11 min), 54-70% B (11-12 min), 70-99% B (12-18 min), […], 99-40% B (23-24 min), hold at 40% B (1 min). MS Analyses were carried out on a Thermo Q Exactive HF mass spectrometer using a heated electrospray ionization (HESI) source. The method duration was 20 minutes using a polarity-switching, top 10 method. The spray voltage for both positive and negative ion modes was 3.5 kV. The capillary temperature was 320° C. with a maximum spray current of 100 ρA. The full MS scan was carried out at 120,000 resolution with a scan range of 350-2000 m/z. For ^18O2 labelling experiments, full MS scan was carried out at 240,000 resolution at the same scan range. Tandem MS spectra were obtained at 15,000 resolution. All data were acquired in profile mode. Peak heights were analyzed using Xcalibur (ThermoFisher Scientific).

Assay [4] deals with human cells. Description: 18O2-GASSP labelling of human cells, untargeted polar metabolomics, with or without IOX1. It counts as cell-based. Conditions: 18O labelling of the metabolite in cells treated with IOX1 (dioxygenase inhibitor), 24 hours. As for the experimental part:
To map the molecular fate of O2 in metabolic pathways in living cells, GASSP was used to carry out ^18O2 labelling in cell lines of different tissue origins at ^18O2 concentrations that represented physiological (3%), hypoxic (1%), and severely hypoxic (0.2%) oxygen tensions found in tissues and tumours^7. At the end of each run, polar metabolites were extracted and untargeted polar metabolomics using liquid chromatography-high resolution mass spectrometry (LC-MS) were carried out to identify metabolites labeled with ^18O.
A list of unique features identified by untargeted metabolomics that were >0.25% (natural abundance of ^18O is 0.2%) labelled by ^18O atoms in each cell line at each oxygen tension was generated. In addition, background signal was controlled by requiring that ^18O labeled peaks had to have a signal that was two-fold greater than naturally occurring isotopes found in non-labelled (^16O) metabolite cell extracts. To determine the proportion of unique ^18O labelled features that were due to dioxygenase activity, cells were treated with a pan-dioxygenase inhibitor (IOX1) at concentrations that inhibit iron-dependent dioxygenases, such as the HIF1α prolyl hydroxylases (FIGS. 5E-5F) and identified ^18O labelled polar metabolites. This list of ^18O metabolites was generated by identifying all features in the unlabelled samples, filtering these features against blank samples to remove background peaks, and calculating the fractional ^18O labelling with the assumption that a metabolite would have no more than three oxygen atoms labelled, followed by manual curation of labelled features (FIG. 1B and FIG. 5G). […] These ^18O-labelled features were termed the oxy-metabolome.
To determine the identities of the labeled metabolites, the list of ^18O labelled features was annotated to their corresponding unlabelled metabolites using retention time matching, tandem mass spectrometry (MS2) fragmentation patterns, and database searching.
All steps involved in setting up labelling with ^18O2 were performed at room temperature and inside a chemical fume hood. The procedure may vary depending on the type and number of tissue culture plates in the chamber and the amount of media in the plates. Users must test the system by using ^16O2:CO2:N2 or other unlabelled gases to optimize conditions for their needs and avoid consumption of costly labelled gases. Cells were treated with or without 5 μM MG132, 500 μM IOX1, 250 μM DFO, or 70 μM ascorbate, before placing tissue culture plates into the modular incubator chamber (MIC) containing a wireless oxygen sensor and a 15 cm dish of water to maintain humidity. Next, the clamps were closed to form an air-tight seal between the lid and platform of the MIC. […] N2 flushing was repeated for a total of three times, or until the sensor in the chamber stabilized at 0% O2 for 10 minutes.

The subject of assay [5] is MIAPACA2 cells. Description: Oxygen consumption rate (OCR) in spheroids. It counts as cell-based, human. The following applies: HPDL KO cells, 1 mM, 3D conditions. As for the experimental part: For measurement of oxygen consumption in spheroids, oxygen consumption rate (OCR) was measured with an XF96 analyzer (Seahorse Bioscience) and the Seahorse XFe96 Spheroid FluxPak, as described by the manufacturer's protocol. Spheroids were generated by seeding 40,000 cells per well into a low-attachment U-bottom 96-well plate with DMEM+10% diaFBS and 5% Matrigel. If indicated, spheroids were treated with or without 1 mM 4-HMA or 4-HB for the duration of the assay. Spheroids were allowed to form for three days before measuring oxygen consumption measurement. Each spheroid was transferred to a Spheroid FluxPak plate containing DMEM (25 mM glucose, 4 mM glutamine, and without pyruvate, phenol red and bicarbonate), and allowed to equilibrate for 1 hr at 37° C., no CO2. OCR measurements were normalized to size of the spheroid.

The target in assay [6] is T1, HPDL (Homo sapiens, UniProt Q96IR7).
T1 construct: made in house; host or cells: MIAPACA2 sgHPDL #3 (HPDL-knockout) cells stably infected with the pLenti6.2 lentiviral vector; anti-FLAG M2 magnetic bead immunoprecipitation
T1 sequence (Q96IR7 1-371): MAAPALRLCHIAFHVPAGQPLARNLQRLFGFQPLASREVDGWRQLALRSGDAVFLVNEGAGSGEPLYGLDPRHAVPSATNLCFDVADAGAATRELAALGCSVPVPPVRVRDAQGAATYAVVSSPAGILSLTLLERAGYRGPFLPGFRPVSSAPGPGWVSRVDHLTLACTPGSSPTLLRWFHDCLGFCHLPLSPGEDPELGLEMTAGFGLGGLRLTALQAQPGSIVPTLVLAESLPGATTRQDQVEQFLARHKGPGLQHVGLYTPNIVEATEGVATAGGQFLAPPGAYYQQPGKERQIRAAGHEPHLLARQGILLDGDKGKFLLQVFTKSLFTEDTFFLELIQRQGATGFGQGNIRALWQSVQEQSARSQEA
Description: HPDL enzymatic assay with immunopurified HPDL-FLAG. The format is biochemical. The following applies: 400 μM substrate, 37° C., 21% 16O2, 1 hour. As for the experimental part:
Homogentisate, the product of HPD, was not produced in any of the present enzymatic assays. […] This directly confirmed that HPDL activity, and not a potential HPDL-interacting enzyme, was needed for 4-HMA synthesis.
For the HPDL enzymatic assay, cell lysates were generated in TNE lysis buffer (50 mM Tris-HCl pH 8.0, 150 mM NaCl, 2 mM EDTA, and 1% NP-40, supplemented with protease (ThermoFisher Scientific) and phosphatase (10 mM NaF, 10 mM β-glycerophosphate, and 10 mM sodium pyrophosphate) inhibitors. HPDL-FLAG was immunoprecipitated using anti-FLAG M2 magnetic beads (Millipore Sigma, M8823). Cell lysates were incubated with anti-FLAG M2 magnetic beads for 1 hour at 4° C. on a rotating platform. Beads were washed four times with TNE lysis buffer, and then 10% and 90% of the immunopurified protein was used for immunoblotting or enzymatic assay, respectively. […] At the end of the assay, 10 uL of assay buffer was retrieved and prepared for analysis by gas chromatography-mass spectrometry (GC-MS, see Metabolomics section).

Take `O=C(O)C(O)c1ccc(O)cc1` (racemic) [Metabolite 4-HMA, 2-hydroxy-2-(4-hydroxyphenyl)acetic acid]: in assay [1], the “HPDL levels in the cell” value is reported as “reduce”. Further, in assay [2], the 3D growth entry is recorded as “increased”. For the same compound, the “incorporation into CoQ10” value in assay [3] is recorded as “incorporated into CoQ10”. For the same compound, in assay [3] (exogenous metabolite, 24 hours), the “effect on 4-HB levels” value is given as “minimal effect”. Also, in assay [3] (24 hours), the “effect on intracellular levels of the other Tyr-derived metabolites” value was “had no effect on Tyr, 4-HPPA and 4-HPLA levels”; the “increase of the fraction of unlabelled (non-labelled) CoQ10” value is on record as 30%. In addition, the “IOX1 Sensitive (Yes/No)” value in assay [4] is “Yes”. In addition, the OCR entry in assay [5] is reported as “increased”.

Consider `O=C(O)C(=O)Cc1ccc(O)cc1` [Metabolite 4-HPPA, 4-hydroxyphenylpyruvate], for which the “4-HMA production by HPDL from the substrate” value in assay [6] is “resulted in the generation of 4-HMA; also recorded: synthesized 4-HMA”. In addition, the “increase of the fraction of unlabelled (non-labelled) CoQ10” value in assay [3] (24 hours) is 30%.

Turning to `O=C(O)c1ccc(O)cc1` [Metabolite 4-HB, 4-hydroxybenzoic acid], the “HPDL levels in the cell” value in assay [1] was “reduce”. For the same compound, the 3D growth result in assay [2] is recorded as “increased”. In assay [3] (24 hours), the “effect on intracellular levels of the other Tyr-derived metabolites” value is “did not change Tyr, 4-HPPA, 4-HPLA, and 4-HMA levels”; the “increase of the fraction of unlabelled (non-labelled) CoQ10” value came out at 30%. For the same compound, the OCR result in assay [5] is “increased”.

In the case of `N[C@@H](Cc1ccc(O)cc1)C(=O)O` [Tyr, tyrosine], in assay [6], the “4-HMA production by HPDL from the substrate” value is listed as “not”. In addition, the “IOX1 Sensitive (Yes/No)” value in assay [4] was “Yes”.
